Source: US20190252037A1 (priority 2016, published 2019)

How the values were obtained:
FluB polymerase = type: binding, human influenza B/Memphis/13/03
[1] = target: bat FluA polymerase-vRNA promoter complex; type: binding
bat FluA polymerase = type: binding

Substance: Pol II CTD peptide, four heptad repeats Tyr-Ser-Pro-Thr-SerP-Pro-Ser (28 amino acids), FAM-labelled at the N-terminal end for binding assays (Covalab) [28-mer SeP5 peptide]
- Kd (FluB polymerase): 2.9 µM
- Kd [1]: 0.9 µM
- higher affinity for Ser5 phosphorylated compared to non-phosphorylated CTD repeats [1]: > 10 fold
- binding in the absence of the vRNA promotor (bat FluA polymerase): independent of vRNA promoter binding
